Data reported in US10160726B2, “Quinolone derivatives as antibacterials” (priority 2014, dated 2018).
Converted amounts (≈) assume the structure as drawn. Where a name gives a salt, the structure may show the parent alone. Read-outs that look alike come from different tables or passages of the source.

How the values were obtained:
Assay type in all cases: cell-based
[1] = tested on: E. coli NB27177 (efflux deficient CGSC 11430, ΔtolC732::kan); assay: microbe, parasite or virus in culture; conditions: Escherichia coli, 20 h, read-out: Antibacterial activity (MIC) NB27177
[2] = tested on: E. coli ATCC 25922 (NB27001); assay: MIC, broth microdilution (CLSI); conditions: Escherichia coli, read-out: Antibacterial activity (MIC) NB27001
[3] = tested on: P. aeruginosa NB52023 (efflux deficient K1542, ΔmexX ΔmexB); assay: microbe, parasite or virus in culture; conditions: Pseudomonas aeruginosa, 20 h, read-out: Antibacterial activity (MIC) NB52023
[4] = tested on: P. aeruginosa NB52023-CDK0006 (gyrA T83I, parC S87L); assay: microbe, parasite or virus in culture; conditions: Pseudomonas aeruginosa, 20 h, read-out: Antibacterial activity (MIC) NB52023-CDK0006
[5] = tested on: S. aureus NB01006-AVR005 (gyrA S84L, grlA S80F, grlB E471K); assay: microbe, parasite or virus in culture; conditions: Staphylococcus aureus, 20 h, read-out: Antibacterial activity (MIC) NB01006-AVR005
[6] = tested on: P. aeruginosa NB52019 (wild-type PAO1); assay: MIC, broth microdilution (CLSI)
[7] = tested on: S. aureus ATCC 29213 (NB01001); assay: MIC, broth microdilution (CLSI); conditions: Staphylococcus aureus, read-out: Antibacterial activity (MIC) NB01001
[8] = ATCC25922, E. coli ATCC 25922, 35° C., 20 hours
[9] = Pseudomonas aeruginosa, PAO1, 20 h; read-out: Antibacterial activity (MIC) NB52019
[10] = ATCC29213, S. aureus ATCC 29213, 35° C., 20 hours
[11] = Pseudomonas aeruginosa; P. aeruginosa wild-type PAO1; 35° C., 20 hours; read-out: Antibacterial activity (MIC) NB52019

Row | Compound | MIC [1] [µg/mL] | MIC [2, 8] [µg/mL] | MIC [3] [µg/mL] | MIC [4] [µg/mL] | MIC [5] [µg/mL] | MIC [6, 9] [µg/mL] | MIC [7, 10] [µg/mL] | MIC ([2]; ATCC25922, 20 h) [µg/mL] | MIC ([6]; Pseudomonas aeruginosa, PAO1, 20 h, read-out: Antibacterial activity (MIC) NB52019) [µg/mL] | MIC ([7]; ATCC29213, 20 h) [µg/mL] | MIC [6, 11] [µg/mL]
1 | Cc1c(N2CC[C@@H]([C@H](C)N)C2)c(F)cc2c(OCC(N)=O)cc(=O)n(C3CC3)c12 [Example 56, 2-((7-((R)-3-((S)-1-aminoethyl)pyrrolidin-1-yl)-1-cyclopropyl-6-fluoro-8-methyl-2-oxo-1,2-dihydroquinolin-4-yl)oxy)acetamide] | 2 (≈ 4.97 µM) | 32 (≈ 79.5 µM) | 16 (≈ 39.8 µM) | > 32 | 4 (≈ 9.94 µM) | > 32 | 4 (≈ 9.94 µM) |  |  |  | 
2 | COc1cc(=O)n(C2CC2)c2c(C)c(N3CC[C@@H]([C@H](C)N)C3)c(F)cc12 [Example 67, 7-((R)-3-((S)-1-aminoethyl)pyrrolidin-1-yl)-1-cyclopropyl-6-fluoro-4-methoxy-8-methylquinolin-2(1H)-one] | 0.06 (≈ 0.167 µM) | 8 (≈ 22.3 µM) | 8 (≈ 22.3 µM) | 16 (≈ 44.5 µM) | 0.06 (≈ 0.167 µM) | 32 (≈ 89 µM) | 0.06 (≈ 0.167 µM) |  |  |  | 
3 | COc1cc(=O)n(C2CC2)c2c(C)c(-c3ccc(N)nc3)ccc12 [Example 69, 7-(6-aminopyridin-3-yl)-1-cyclopropyl-4-methoxy-8-methylquinolin-2(1H)-one] | 0.5 (≈ 1.56 µM) | 32 (≈ 99.6 µM) | > 32 | > 32 | 2 (≈ 6.22 µM) | > 32 | 2 (≈ 6.22 µM) |  |  |  | 
4 | Cc1c(N2CC[C@H](O)C2)c(F)cc2c(OCCN(C)C)cc(=O)n(C3CC3)c12 [Example 55, (S)-1-cyclopropyl-4-(2-(dimethylamino)ethoxy)-6-fluoro-7-(3-hydroxypyrrolidin-1-yl)-8-methylquinolin-2(1H)-one] | 0.125 (≈ 0.321 µM) | 8 (≈ 20.5 µM) | 32 (≈ 82.2 µM) | 32 (≈ 82.2 µM) | 0.5 (≈ 1.28 µM) | > 32 | 0.5 (≈ 1.28 µM) |  |  |  | 
5 | Cc1c(N2CC[C@@H]([C@H](C)N)C2)c(F)cc2c(OCCN(C)C)cc(=O)n(C3CC3)c12 [Example 49, 7-((R)-3-((S)-1-aminoethyl)pyrrolidin-1-yl)-1-cyclopropyl-4-(2-(dimethylamino)ethoxy)-6-fluoro-8-methylquinolin-2(1H)-one] | 0.06 (≈ 0.144 µM) |  | 4 (≈ 9.6 µM) | 8 (≈ 19.2 µM) | 0.25 (≈ 0.6 µM) |  |  | 1 (≈ 2.4 µM) | 8 (≈ 19.2 µM) | 0.125 (≈ 0.3 µM) | 
6 | Cc1c(N2CC[C@@H]([C@H](C)N)C2)c(F)c(F)c2ccc(=O)n(C3CC3)c12.O=C(O)C(F)(F)F [Example 106, 7-((R)-3-((S)-1-aminoethyl)pyrrolidin-1-yl)-1-cyclopropyl-5,6-difluoro-8-methyl quinolin-2(1H)-one TFA] | < 0.03 | 0.125 | 0.5 | 1 | 0.015 |  | 0.015 |  |  |  | 2
7 | Cc1c(F)c(N2CCC(CN)C2)c(C)c2c1ccc(=O)n2C1CC1.O=C(O)C(F)(F)F (stereo not shown) [Example 101, 7-(3-(aminomethyl)pyrrolidin-1-yl)-1-cyclopropyl-6-fluoro-5,8-dimethylquinolin-2(1H)-one TFA salt] | 0.125 | 8 | 8 | 16 | 0.125 |  | 0.5 |  |  |  | > 32
8 | Cc1c(N2CC[C@@H]([C@H](C)N)C2)ccc2c(OCc3ccccc3)cc(=O)n(C3CC3)c12 [Example 71, 7-((R)-3-((S)-1-aminoethyl)pyrrolidin-1-yl)-4-(benzyloxy)-1-cyclopropyl-8-methylquinolin-2(1H)-one TFA salt] | 6 | 32 | > 32 | > 32 | 6 | > 32 | 2 |  |  |  | 
9 | Cc1c(N2CCC(F)(CN)C2)c(F)cc2c(CN)cc(=O)n(C3CC3)c12 (stereo not shown) [Example 81.33, 4-(aminomethyl)-7-(3-(aminomethyl)-3-fluoropyrrolidin-1-yl)-1-cyclopropyl-6-fluoro-8-methylquinolin-2(1H)-one] | 0.06 (≈ 0.166 µM) | 0.5 (≈ 1.38 µM) | 0.5 (≈ 1.38 µM) | 1 (≈ 2.76 µM) | 1 (≈ 2.76 µM) | 2 (≈ 5.52 µM) | 0.5 (≈ 1.38 µM) |  |  |  | 
10 | Cc1c(N2CCNCC2)c(F)cc2c(CN)cc(=O)n(C3CC3)c12 [Example 81.09, 4-(aminomethyl)-1-cyclopropyl-6-fluoro-8-methyl-7-(piperazin-1-yl)quinolin-2(1H)-one] | 0.5 (≈ 1.51 µM) | 2 (≈ 6.05 µM) | 0.5 (≈ 1.51 µM) | 2 (≈ 6.05 µM) | 16 (≈ 48.4 µM) |  | 16 (≈ 48.4 µM) |  |  |  | 4 (≈ 12.1 µM)
